pIC50: −log10 of the molar value.
target: T1, hCRTH2 receptor (Homo sapiens, UniProt Q9Y5Y4); test: Radioligand displacement assay (3H-PGD2) on hCRTH2 receptor membranes; type: binding; settings: antagonistic activity; 3H-PGD2 displacement on HEK293-hCRTH2 membrane fragments
T1 construct: expressed in transfected cells; host or cells: HEK293
T1 sequence (Q9Y5Y4 1-395): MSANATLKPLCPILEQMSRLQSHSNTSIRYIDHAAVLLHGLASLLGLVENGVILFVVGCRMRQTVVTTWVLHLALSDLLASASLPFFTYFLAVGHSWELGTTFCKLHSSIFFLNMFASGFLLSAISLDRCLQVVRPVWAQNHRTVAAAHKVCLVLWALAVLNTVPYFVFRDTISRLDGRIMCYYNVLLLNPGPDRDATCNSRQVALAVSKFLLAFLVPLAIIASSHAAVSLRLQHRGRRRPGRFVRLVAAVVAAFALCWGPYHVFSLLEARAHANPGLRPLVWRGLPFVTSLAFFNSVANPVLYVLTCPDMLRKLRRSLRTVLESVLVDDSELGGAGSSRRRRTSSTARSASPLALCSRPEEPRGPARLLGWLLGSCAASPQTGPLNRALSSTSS
Method: First, recombinant HEK293-hCRTH2 cells were detached from culture plates into 5 ml buffer A/plate (Buffer A: 5 mM Tris, 1 mM MgCl2-6H2O pH=7.4) using a rubber policeman. Cells were then transferred into centrifugation tubes and centrifuged for 5 min at 400 g. The cell pellet was resuspended in the same buffer and tubes were frozen at −80° C. Cells were thawed and membrane fragments were generated by homogenization using a polytron homogenizer (30 seconds). The membrane fragments were then centrifuged at 3000 g for 20 minutes and resuspended in buffer C (Buffer C: 75 mM Tris, 25 mM MgCl2, 250 mM Saccharose pH 7.4). Aliquots of membrane fragments were stored at −20° C.
Binding assay was performed in a final assay volume of 250 μl. First, 25 μl of test compound, previously diluted in Binding-Buffer (Binding-Buffer: 50 mM Tris-Base, 100 mM NaCl, 1 mM EDTA, 0.1% BSA (protease free), 0.01% NaN3, 10 mM MnCl2, pH 7.0) was placed into each well. After addition of 75 μl Binding-Buffer, 50 μl of the radioligand ^3H-PGD2 (at 2.5 nM (220.000 dpm/well) from ANAWA ART0662) was added to each well. Binding assay was started by addition of 100 μl CRTH2 membrane fragments, reaching a final concentration of 20 μg/well. For non-specific binding, PGD2 was added to the reaction mixture to […] final concentration.
This assay mix was incubated for 90 minutes at room temperature and then filtered through a GF/C filter 96-well plate which was pre-soaked for 3 hours in 0.5% polyethyleneimine (PEI). The filter-wells were washed three times with ice cold Binding-Buffer. Then, 40 μl of Microscint-40 (Packard) was added to each well and the retained radioactivity quantified in a Topcount (Packard).

SMILES	pIC50
O=C(O)COc1ccc(F)cc1C1c2ccccc2CCN1C(=O)Cc1noc2ccccc12 (racemic) [Example 45, (±)-{2-[2-(2-Benzo[d]isoxazol-3-yl-acetyl)-1,2,3,4-tetrahydro-isoquinolin-1-yl]-4-fluoro-phenoxy}-acetic acid]	6.43
CC(C)(CC(=O)N1CCc2ccccc2C1c1cc(F)ccc1OCC(=O)O)c1ccccc1 (racemic) [Example 46, (±)-{4-Fluoro-2-[2-(3-methyl-3-phenyl-butyryl)-1,2,3,4-tetrahydro-isoquinolin-1-yl]-phenoxy}-acetic acid]	6.04
O=C(O)COc1ccc(F)cc1C1c2ccccc2CCN1C(=O)Cc1cccc2ccccc12 (racemic) [Example 47, (±)-{4-Fluoro-2-[2-(2-naphthalen-1-yl-acetyl)-1,2,3,4-tetrahydro-isoquinolin-1-yl]-phenoxy}-acetic acid]	6.70
O=C(O)COc1ccc(F)cc1C1c2ccccc2CCN1C(=O)Cc1ccc2cccnc2c1 (racemic) [Example 48, (±)-{4-Fluoro-2-[2-(2-quinolin-7-yl-acetyl)-1,2,3,4-tetrahydro-isoquinolin-1-yl]-phenoxy}-acetic acid]	6.54
O=C(O)COc1ccc(F)cc1C1c2ccccc2CCN1C(=O)Cc1ccc2c(c1)OCCO2 (racemic) [Example 50]	6.74
CCn1c(C)c(CCC(=O)N2CCc3ccccc3C2c2cc(F)ccc2OCC(=O)O)c2ccccc21 (racemic) [Example 52, (±)-(2-{2-[3-(1-Ethyl-2-methyl-1H-indol-3-yl)-propionyl]-1,2,3,4-tetrahydro-isoquinolin-1-yl}-4-fluoro-phenoxy)-acetic acid]	6.22
O=C(O)COc1ccc(F)cc1C1c2ccccc2CCN1C(=O)CCc1c(Cl)cccc1Cl (racemic) [Example 53, (±)-(2-{2-[3-(2,6-Dichloro-phenyl)-propionyl]-1,2,3,4-tetrahydro-isoquinolin-1-yl}-4-fluoro-phenoxy)-acetic acid]	6.06
Cc1nnnn1-c1ccc(CC(=O)N2CCc3ccccc3C2c2cc(F)ccc2OCC(=O)O)cc1 (racemic) [Example 55, (±)-[4-Fluoro-2-(2-{2-[4-(5-methyl-tetrazol-1-yl)-phenyl]-acetyl}-1,2,3,4-tetrahydro-isoquinolin-1-yl)-phenoxy]-acetic acid]	6.10
O=C(O)COc1ccc(F)cc1C1c2ccccc2CCN1C(=O)CCN1C(=O)COc2ccc(Cl)cc21 (racemic) [Example 56, (±)-(2-{2-[3-(6-Chloro-3-oxo-2,3-dihydro-benzo[1,4]oxazin-4-yl)-propionyl]-1,2,3,4-tetrahydro-isoquinolin-1-yl}-4-fluoro-phenoxy)-acetic acid]	6.13
Cc1nc(CC(=O)N2CCc3ccccc3C2c2cc(F)ccc2OCC(=O)O)cs1 (racemic) [Example 57, (±)-(4-Fluoro-2-{2-[2-(2-methyl-thiazol-4-yl)-acetyl]-1,2,3,4-tetrahydro-isoquinolin-1-yl}-phenoxy)-acetic acid]	6.14
O=C(O)COc1ccc(F)cc1C1c2ccccc2CCN1C(=O)Cc1csc2ccccc12 (racemic) [Example 58, (±)-{2-[2-(2-Benzo[b]thiophen-3-yl-acetyl)-1,2,3,4-tetrahydro-isoquinolin-1-yl]-4-fluoro-phenoxy}-acetic acid]	6.91
O=C(O)COc1ccc(F)cc1C1c2ccccc2CCN1C(=O)CCc1nc2ccccc2s1 (racemic) [Example 59, (±)-{2-[2-(3-Benzothiazol-2-yl-propionyl)-1,2,3,4-tetrahydro-isoquinolin-1-yl]-4-fluoro-phenoxy}-acetic acid]	6.10
O=C(O)COc1ccc(F)cc1C1c2ccccc2CCN1C(=O)Cc1ccc(-c2ccccc2)cc1 (racemic) [Example 60]	6.24
O=C(O)COc1ccc(F)cc1C1c2ccccc2CCN1C(=O)Cn1ccc2ccccc21 (racemic) [Example 61, (±)-{4-Fluoro-2-[2-(2-indol-1-yl-acetyl)-1,2,3,4-tetrahydro-isoquinolin-1-yl]-phenoxy}-acetic acid]	6.07
O=C(O)COc1ccc(F)cc1C1c2ccccc2CCN1C(=O)Cc1nc2ccccc2[nH]1 (racemic) [Example 62]	6.10
O=C(O)COc1ccc(F)cc1C1c2ccccc2CCN1C(=O)CN1Cc2ccccc2C1 (racemic) [Example 63, (±)-{2-[2-(2-1,3-Dihydro-isoindol-2-yl-acetyl)-1,2,3,4-tetrahydro-isoquinolin-1-yl]-4-fluoro-phenoxy}-acetic acid]	6.06
COc1ccc2[nH]cc(CCC(=O)N3CCc4ccccc4C3c3cc(F)ccc3OCC(=O)O)c2c1 (racemic) [Example 64, (±)-(4-Fluoro-2-{2-[3-(5-methoxy-1H-indol-3-yl)-propionyl]-1,2,3,4-tetrahydro-isoquinolin-1-yl}-phenoxy)-acetic acid]	7.30
Cc1[nH]c2ccccc2c1CCC(=O)N1CCc2ccccc2C1c1cc(F)ccc1OCC(=O)O (racemic) [Example 65, (±)-(4-Fluoro-2-{2-[3-(2-methyl-1H-indol-3-yl)-propionyl]-1,2,3,4-tetrahydro-isoquinolin-1-yl}-phenoxy)-acetic acid]	6.72

These reach a higher pIC50. Values come first.

pIC50	SMILES
7.45	O=C(O)COc1ccc(F)cc1C1c2ccccc2CCN1C(=O)Cc1ccc2ncccc2c1 (racemic) [Example 49, (±)-{4-Fluoro-2-[2-(2-quinolin-6-yl-acetyl)-1,2,3,4-tetrahydro-isoquinolin-1-yl]-phenoxy}-acetic acid]
7.49	O=C(O)COc1ccc(F)cc1C1c2ccccc2CCN1C(=O)CCOc1ccccc1F (racemic) [Example 54]
7.52	O=C(O)COc1ccc(F)cc1C1c2ccccc2CCN1C(=O)CCc1c[nH]c2ccccc12 (racemic) [Example 51, (±)-{4-Fluoro-2-[2-(3-1H-indol-3-yl-propionyl)-1,2,3,4-tetrahydro-isoquinolin-1-yl]-phenoxy}-acetic acid]
7.56	Cn1cc(CCC(=O)N2CCc3ccccc3C2c2cc(F)ccc2OCC(=O)O)c2ccccc21 (racemic) [Example 66, (±)-(4-Fluoro-2-{2-[3-(1-methyl-1H-indol-3-yl)-propionyl]-1,2,3,4-tetrahydro-isoquinolin-1-yl}-phenoxy)-acetic acid]
7.61	O=C(O)COc1ccc(F)cc1C1c2cc(F)ccc2CCN1C(=O)OCc1ccccc1 (racemic) [Example 41, (±)-1-(2-Carboxymethoxy-5-fluoro-phenyl)-7-fluoro-3,4-dihydro-1H-isoquinoline-2-carboxylic acid benzyl ester]
7.64	O=C(O)COc1ccc(F)cc1C1c2ccc(F)c(Br)c2CCN1C(=O)OCc1ccccc1 (racemic) [Example 40, (±)-5-Bromo-1-(2-carboxymethoxy-5-fluoro-phenyl)-6-fluoro-3,4-dihydro-1H-isoquinoline-2-carboxylic acid benzyl ester]
7.65	Cc1cccc2c1CCN(C(=O)OCc1ccccc1)C2c1cc(F)ccc1OCC(=O)O (racemic) [Example 39, (±)-1-(2-Carboxymethoxy-5-fluoro-phenyl)-5-methyl-3,4-dihydro-1H-isoquinoline-2-carboxylic acid benzyl ester]
7.68	O=C(O)COc1ccc(F)cc1C1c2cccc(Cl)c2CCN1C(=O)OCc1ccccc1 (racemic) [Example 38, (±)-1-(2-Carboxymethoxy-5-fluoro-phenyl)-5-chloro-3,4-dihydro-1H-isoquinoline-2-carboxylic acid benzyl ester]
8.08	N#Cc1ccc(OCC(=O)O)c(C2c3cc(F)cc(F)c3CCN2C(=O)OCc2ccccc2)c1 (racemic) [Example 44, (±)-1-(2-Carboxymethoxy-5-cyano-phenyl)-5,7-difluoro-3,4-dihydro-1H-isoquinoline-2-carboxylic acid benzyl ester]
8.16	O=C(O)COc1ccc(F)cc1C1c2cc(F)cc(F)c2CCN1C(=O)OCc1ccccc1 (racemic) [Example 42, (±)-1-(2-Carboxymethoxy-5-fluoro-phenyl)-5,7-difluoro-3,4-dihydro-1H-isoquinoline-2-carboxylic acid benzyl ester]
8.31	O=C(O)COc1ccc(Cl)cc1C1c2cc(F)cc(F)c2CCN1C(=O)OCc1ccccc1 (racemic) [Example 43, (±)-1-(2-Carboxymethoxy-5-chloro-phenyl)-5,7-difluoro-3,4-dihydro-1H-isoquinoline-2-carboxylic acid benzyl ester]

Reference: patent US8575158B2, “1-phenyl-substituted heterocyclyl derivatives and their use as prostaglandin D2 receptor modulators” (Actelion Pharmaceuticals Ltd., priority 2010, dated 2013)
